Laboratory results from patent US8680137B2, “Agents and methods for treating ischemic and other diseases” (Nono Inc., priority 2009, dated 2014).
Counter-ions that a name gives are not always drawn. Like-named read-outs stand apart in the source and are kept apart here.

How the values were obtained:
murine TRPM7 = murine TRPM7 (Mus musculus, UniProt Q923J1); assay: TRPM7-mediated cell death screen, Tet-induced Flag-murine TRPM7 HEK293 Trex cells in Mg2+-deficient HBSS, PI fluorescence
Method: In the present example, human embryonic kidney (HEK293 Trex) cells were stably transfected with a tetracycline inducible Flag-tagged TRPM7 construct.
This cell death can be measured, and the impact of a candidate TRPM7 modulator on this cell death can be measured. […] Cell death can also be measured by fluorescent measurements of propidium iodide and dihydrorhodamine.
Tet-inducible Flag-murine TRPM7/pcDNA4-TO HEK293 Trex cells are cultured in: MEM (Invitrogen) supplemented with 10% fetal bovine serum, 20 mM GlutaMAX-1, 100 units/ml penicillin G sodium, 100 units/ml streptomycin sulfate, 0.25 ug/ml amphotericin B, 5 ug/ml blasticidin, 0.4 mg/ml zeocin. (All reagent were obtained from Invitrogen)
Stably transfected Flag-murine TRPM7/pcDNA4-TO HEK293 Trex cells are thawed from frozen stock kept in liquid nitrogen, and cultured in culture medium for 5 days in 100 mm dishes (Costa). […] Cells used in the present experiments are kept to three passages or less. The cells are maintained at 37° C. with 5% CO2 in a humidified incubator. All culture plates and multi-well plates (Costa) are coated with poly-D-lysine. The coating with poly-D-lysine is performed using 0.1 mg/ml poly-D-lysine (P1045 Sigma) for 12 h at 37C, followed by four washes with sterilized D-PBS (Invitrogen) without MgCl2 and CaCl2.).
When 384 well plates are used, Cells are seeded at 1.3−1.5×10^4 cells/well. When 96 well plates are used, cells are seeded at 4−5×10^4 Cells/well. After 24 h TRPM7 expression is induced by adding tetracycline (Tet; 1 ug/ml) (Invitrogen) for 24 h, followed by wash with Mg deficient HBSS.
The test compounds were plated in 96 or 384 well formats, and initially used at a concentration of: 4 μM for compounds of the LOPAC library and 5 μM for each of the Prestwick and Maybridge libraries.
Cell death in the presence or absence of a test compound and/or under conditions of TRPM7 activation was determined by fluorescence measurements of PI (5-50 μg/ml).
In brief, B scores are a relative potency score based on the raw sample PI fluorescence value. They are the ratio of an adjusted raw PI fluorescence value in the numerator to a measure of variability in the denominator.
In another approach, used manually to validate the results of the HTS method, a multiwell plate fluorescence scanner (Fluorskan Ascent; Thermo Scientific) was used. The fraction of dead cells in each culture was calculated as: fraction DEAD=(Ft−Fo)/Fmax Where Ft=PI fluorescence of the sample at time t, Fo=initial PI fluorescence and Fmax=background subtracted PI fluorescence the same cultures after exposure to 100 μM triton-X. An alternative to this formula is a Control-based formula wherein the fraction dead=[Ft−F(−)t]/[F(+)t−F(−)t] where Ft=PI fluorescence of the sample at time t, F(−)t is the PI fluorescence of the negative control sample at time t, F(+)t is the PI fluorescence of the positive control sample at time t.
Screening was carried out in Tet-induced Flag-murine TRPM7/pcDNA4-TO HEK293 Trex cells.

TRPM7 = TRPM7 (Homo sapiens, UniProt Q96QT4); conditions: Nadler et al., Jiang et al.; read-out: IC50 for inhibition of TRPM7; cited from earlier work
TRPM7, sequence (Q96QT4 whole entry): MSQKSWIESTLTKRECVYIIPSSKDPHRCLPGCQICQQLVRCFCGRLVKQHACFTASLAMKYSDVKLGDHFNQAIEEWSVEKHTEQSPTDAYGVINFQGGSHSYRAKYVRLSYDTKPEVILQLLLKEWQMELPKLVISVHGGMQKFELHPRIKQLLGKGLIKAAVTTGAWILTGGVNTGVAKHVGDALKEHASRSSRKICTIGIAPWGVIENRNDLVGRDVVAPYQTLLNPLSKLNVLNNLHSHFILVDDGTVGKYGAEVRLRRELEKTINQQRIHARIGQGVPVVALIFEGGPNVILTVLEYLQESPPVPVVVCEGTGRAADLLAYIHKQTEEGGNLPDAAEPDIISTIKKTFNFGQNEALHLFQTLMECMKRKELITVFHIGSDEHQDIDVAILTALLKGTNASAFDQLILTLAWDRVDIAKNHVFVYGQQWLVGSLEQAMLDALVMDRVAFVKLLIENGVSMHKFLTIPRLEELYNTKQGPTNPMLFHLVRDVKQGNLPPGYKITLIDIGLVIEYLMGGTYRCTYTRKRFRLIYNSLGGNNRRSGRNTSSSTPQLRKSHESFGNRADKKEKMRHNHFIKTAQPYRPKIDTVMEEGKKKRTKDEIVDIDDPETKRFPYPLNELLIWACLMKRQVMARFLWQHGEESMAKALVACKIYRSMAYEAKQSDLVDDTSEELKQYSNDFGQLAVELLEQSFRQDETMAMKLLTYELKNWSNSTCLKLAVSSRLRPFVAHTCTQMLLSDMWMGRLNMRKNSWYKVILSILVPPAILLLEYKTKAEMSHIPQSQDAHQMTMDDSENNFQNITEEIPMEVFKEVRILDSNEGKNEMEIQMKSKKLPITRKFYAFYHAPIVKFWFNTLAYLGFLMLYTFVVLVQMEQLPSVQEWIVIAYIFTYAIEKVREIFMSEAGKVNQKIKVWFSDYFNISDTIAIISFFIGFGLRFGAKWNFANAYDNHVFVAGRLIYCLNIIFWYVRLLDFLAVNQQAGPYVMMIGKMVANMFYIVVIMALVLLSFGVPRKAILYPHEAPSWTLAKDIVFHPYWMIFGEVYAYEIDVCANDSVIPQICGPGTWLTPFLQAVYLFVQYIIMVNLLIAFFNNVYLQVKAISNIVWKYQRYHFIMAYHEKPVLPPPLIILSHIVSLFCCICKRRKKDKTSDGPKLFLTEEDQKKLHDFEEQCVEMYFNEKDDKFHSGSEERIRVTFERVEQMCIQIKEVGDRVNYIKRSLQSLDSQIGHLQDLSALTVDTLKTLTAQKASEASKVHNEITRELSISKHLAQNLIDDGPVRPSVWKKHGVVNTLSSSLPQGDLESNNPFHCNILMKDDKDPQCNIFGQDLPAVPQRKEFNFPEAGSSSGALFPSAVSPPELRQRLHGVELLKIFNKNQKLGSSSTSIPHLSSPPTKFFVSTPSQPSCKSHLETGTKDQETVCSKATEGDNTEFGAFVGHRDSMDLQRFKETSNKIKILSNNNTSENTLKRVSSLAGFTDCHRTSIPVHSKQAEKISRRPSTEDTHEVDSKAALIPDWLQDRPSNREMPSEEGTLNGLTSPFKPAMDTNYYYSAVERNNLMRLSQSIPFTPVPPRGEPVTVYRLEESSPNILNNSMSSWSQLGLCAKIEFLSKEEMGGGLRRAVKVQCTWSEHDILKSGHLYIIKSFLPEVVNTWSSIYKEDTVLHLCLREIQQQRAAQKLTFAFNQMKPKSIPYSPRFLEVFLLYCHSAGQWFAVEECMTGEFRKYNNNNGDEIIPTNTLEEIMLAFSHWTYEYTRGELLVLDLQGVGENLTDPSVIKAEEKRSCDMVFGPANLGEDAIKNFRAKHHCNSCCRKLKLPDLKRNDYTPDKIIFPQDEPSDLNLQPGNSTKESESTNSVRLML

H9c2 cells = assay: OGD-induced cell death in H9c2 cardiomyocytes, PI uptake; format: cell-based, rat; conditions: 6 hr anoxia + 2 hr recovery, gadolinium in buffer
Method: The rat cardiomyoblast cell line H9c2 was obtained from the American Type Culture Collection (CRL-1446) and cultured in Dulbecco's Modified Eagle Medium supplemented with 10% (v/v) heat-inactivated fetal bovine serum and 1% antibiotic-antimycotic. Cells were grown in an atmosphere of […]/5% CO2 in a humidified incubator.
H9c2 cells were made anoxic by replacing the medium with de-oxygenated Ischemic buffer (in mM: 1.13 CaCl2, 5 KCl, 0.3 KH2PO4, 0.5 MgCl2, 0.4 MgSO4, 128 NaCl, 10 HEPES) and by transferring them to an anaerobic chamber (5% CO2, 10% H2, 85% N2) for 6 hrs or 16 hrs at 37° C. OGD was terminated by washing the cells with oxygenated glucose-containing Control buffer (in mM: 1.13 CaCl2, 5 KCl, 0.3 KH2PO4, 0.5 MgCl2, 0.4 MgSO4, 128 NaCl, 10 HEPES 10 Glucose). Cultures were maintained for another 2 hrs at 37° C. in a humidified 5% CO2 atmosphere. Normoxic cells were maintained in Control buffer for the duration of the experiment.
Cell death was determined by fluorescence measurements of PI (5 μg/ml) using a multiwell plate fluorescence scanner. The fraction of dead cells in each culture was calculated as: fraction dead=(Ft−F0)/Fmax where Ft=PI fluorescence at 2 hrs post-OGD, F0=initial PI fluorescence immediately after the OGD treatment, and Fmax=PI fluorescence of the same cultures following 20 mins incubation in 1% TritonX-100.
H9c2 cells were cultured and subjected to OGD as described supra. FIG. 71 panels A and B show the results of exposure to M21 or M5 for 24 hours following 6 hours of OGD. FIG. 71 panels C and D show the results of H9c2cells were treated with either 1 mM Mg^2+, 5 μM M6, M11 (acute treatment) during the anoxic and recovery periods, or 1 μM nifedipine. Results are presented as mean±SEM (n=4).

[1] = LOPAC (4 μM) and Prestwick (5 μM) hits
[2] = LOPAC library, initial concentration 4 μM, HTS PI fluorescence
[3] = LOPAC library, manual replication
[4] = Prestwick library, initial concentration 5 μM, HTS PI fluorescence
[5] = Prestwick library, manual replication
[6] = Prestwick library, 39 nM to 20 μM

murine TRPM7, sequence (Q923J1 whole entry): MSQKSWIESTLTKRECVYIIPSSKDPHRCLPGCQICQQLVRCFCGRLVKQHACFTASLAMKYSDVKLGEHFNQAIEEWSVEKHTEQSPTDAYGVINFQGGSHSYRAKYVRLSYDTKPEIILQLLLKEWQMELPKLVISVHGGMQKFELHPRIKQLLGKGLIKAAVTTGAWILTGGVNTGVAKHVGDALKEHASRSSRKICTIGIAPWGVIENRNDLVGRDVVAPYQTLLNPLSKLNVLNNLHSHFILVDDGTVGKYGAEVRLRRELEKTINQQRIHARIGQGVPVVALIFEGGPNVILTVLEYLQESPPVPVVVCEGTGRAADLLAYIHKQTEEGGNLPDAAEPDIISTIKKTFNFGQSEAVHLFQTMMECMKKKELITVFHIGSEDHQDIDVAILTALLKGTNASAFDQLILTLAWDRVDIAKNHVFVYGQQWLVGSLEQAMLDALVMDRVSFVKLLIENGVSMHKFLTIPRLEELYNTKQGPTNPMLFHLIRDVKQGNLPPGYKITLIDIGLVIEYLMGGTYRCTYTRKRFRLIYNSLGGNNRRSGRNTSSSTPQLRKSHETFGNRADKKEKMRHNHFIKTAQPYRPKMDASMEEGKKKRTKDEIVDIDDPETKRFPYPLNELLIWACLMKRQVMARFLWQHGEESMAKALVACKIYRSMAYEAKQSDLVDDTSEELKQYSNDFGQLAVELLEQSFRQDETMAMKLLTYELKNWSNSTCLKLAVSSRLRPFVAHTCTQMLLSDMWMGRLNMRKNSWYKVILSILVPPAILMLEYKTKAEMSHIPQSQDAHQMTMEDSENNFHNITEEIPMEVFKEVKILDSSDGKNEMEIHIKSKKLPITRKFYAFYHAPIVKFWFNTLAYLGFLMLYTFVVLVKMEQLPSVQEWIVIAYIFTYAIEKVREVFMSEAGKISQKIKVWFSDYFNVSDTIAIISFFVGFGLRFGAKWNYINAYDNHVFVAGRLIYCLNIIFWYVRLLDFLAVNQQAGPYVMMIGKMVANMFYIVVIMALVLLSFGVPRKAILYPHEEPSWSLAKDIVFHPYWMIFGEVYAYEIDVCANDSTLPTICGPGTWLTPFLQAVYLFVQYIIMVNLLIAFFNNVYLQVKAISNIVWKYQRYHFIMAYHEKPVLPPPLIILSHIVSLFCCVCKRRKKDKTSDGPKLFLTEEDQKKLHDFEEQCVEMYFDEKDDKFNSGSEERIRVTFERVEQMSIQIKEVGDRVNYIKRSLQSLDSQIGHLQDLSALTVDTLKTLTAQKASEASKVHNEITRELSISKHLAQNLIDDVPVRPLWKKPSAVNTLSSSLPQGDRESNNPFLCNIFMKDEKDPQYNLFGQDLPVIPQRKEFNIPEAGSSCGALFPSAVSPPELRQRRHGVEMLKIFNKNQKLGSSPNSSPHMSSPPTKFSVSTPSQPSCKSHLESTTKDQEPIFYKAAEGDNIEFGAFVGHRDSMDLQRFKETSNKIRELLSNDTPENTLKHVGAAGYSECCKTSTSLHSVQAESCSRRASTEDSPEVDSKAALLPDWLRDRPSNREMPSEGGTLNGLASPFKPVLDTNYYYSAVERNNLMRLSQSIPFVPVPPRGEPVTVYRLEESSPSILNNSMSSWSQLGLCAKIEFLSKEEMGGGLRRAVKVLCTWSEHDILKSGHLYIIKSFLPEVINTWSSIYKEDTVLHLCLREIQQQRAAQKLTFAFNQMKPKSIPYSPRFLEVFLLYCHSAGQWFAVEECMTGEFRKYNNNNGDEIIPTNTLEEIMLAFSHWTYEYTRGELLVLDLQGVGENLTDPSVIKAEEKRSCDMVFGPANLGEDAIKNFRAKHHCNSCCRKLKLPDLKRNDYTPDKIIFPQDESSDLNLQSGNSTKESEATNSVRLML

Structure (SMILES)	found to inhibit TRPM7-mediated cell injury (murine TRPM7; [1])	Dose-Response (murine TRPM7; LOPAC library, 39 nM to 20 μM)	B Score (murine TRPM7; [2])	Verification Ratio (murine TRPM7; [3])	B Score (murine TRPM7; [4])	Verification Ratio (murine TRPM7; [5])	Dose-Response (murine TRPM7; [6])	further results
COc1ccccc1N1CCN(CC(O)COc2cccc3ccccc23)CC1 (centres unmarked) [Naftopidil dihydrochloride]	inhibit TRPM7-mediated cell injury	Yes	−7.535	0.2231	−8.736	0.1346		
O=C1c2c(O)ccc(O)c2C(=O)c2c(NCCNCCO)ccc(NCCNCCO)c21 [Mitoxantrone]	inhibit TRPM7-mediated cell injury	Yes	−7.587	0.25				
Cc1cc(C2CCCCC2)n(O)c(=O)c1.NCCO [Ciclopirox ethanolamine]	inhibit TRPM7-mediated cell injury				−5.075	0.4227	Yes	
C[n+]1cc2c3c(ccc2c2ccc4cc5c(cc4c21)OCO5)OCO3 [Sanguinarine chloride]	inhibit TRPM7-mediated cell injury		−6.158	0.8029				
COc1cccc2c1C(=O)c1c(O)c3c(c(O)c1C2=O)C[C@@](O)(C(=O)CO)C[C@@H]3O[C@H]1C[C@H](N)[C@H](O)[C@H](C)O1 [Doxorubicin hydrochloride]	inhibit TRPM7-mediated cell injury				−9.315	0.4588	Yes	
Ic1ccccc1CNC1C2CCN(CC2)C1C(c1ccccc1)c1ccccc1.O=C(O)C(=O)O [L-703,606 oxalate]	inhibit TRPM7-mediated cell injury	Yes	−8.636	0.373				
[Mg+2] [Mg^2+]								IC50 (TRPM7): ~600 µM
CCn1cnc2c(Nc3cccc(Cl)c3)nc(N[C@@H]3CCCC[C@@H]3N)nc21.Cl [CGP-74514A hydrochloride]	inhibit TRPM7-mediated cell injury	Yes	−7.96	0.6543				
CC[C@@H](C(=O)[C@@H](C)[C@@H](O)[C@H](C)CCc1ccc(C)c(O)c1C(=O)O)[C@H]1O[C@](CC)([C@H]2CC[C@](O)(CC)[C@H](C)O2)C[C@@H]1C [Lasalocid sodium salt]	inhibit TRPM7-mediated cell injury				−5.54	0.6891		
CCN(CC)CCCC(C)Nc1c2ccc(Cl)cc2nc2ccc(OC)cc12 (centres unmarked) [Quinacrine dihydrochloride]	inhibit TRPM7-mediated cell injury	Yes	−5.516	0.8254				
CC[C@H]1CN2CCc3cc(OC)c(OC)cc3[C@@H]2C[C@@H]1C[C@H]1NCCc2cc(O)c(OC)cc21.Cl.Cl.O.O.O.O.O.O.O [Cephaeline dihydrochloride heptahydrate]	inhibit TRPM7-mediated cell injury				−7.927	0.2271		
COc1ccc(C[C@H](N)C(=O)N[C@H]2[C@@H](O)[C@H](n3cnc4c(N(C)C)ncnc43)O[C@@H]2CO)cc1 [Puromycin dihydrochloride]	inhibit TRPM7-mediated cell injury				−5.573	0.5905	Yes	
[Gd] [gadolinium, reference compound]								OGD-mediated cell death (H9c2 cells): reduced
COc1cccc2c1C(=O)c1c(O)c3c(c(O)c1C2=O)C[C@@](O)(C(C)=O)C[C@@H]3O[C@H]1C[C@H](N)[C@H](O)[C@H](C)O1 [Daunorubicin hydrochloride]	inhibit TRPM7-mediated cell injury				−5.68	0.4598	Yes	
C[C@H]1O[C@@H](O[C@H]2[C@@H](O)C[C@H](O[C@H]3[C@@H](O)C[C@H](O[C@H]4CC[C@@]5(C)[C@H](CC[C@@H]6[C@@H]5C[C@@H](O)[C@]5(C)[C@@H](C7=CC(=O)OC7)CC[C@]65O)C4)O[C@@H]3C)O[C@@H]2C)C[C@H](O)[C@@H]1O [Digoxin]								B Score (murine TRPM7): −5.938; Dose-Response (murine TRPM7): Yes; Verification Ratio (murine TRPM7): 0.7248; found to inhibit TRPM7-mediated cell injury (murine TRPM7): inhibit TRPM7-mediated cell injury
COc1cc2c(c(OC)c1OC)-c1ccc(OC)c(=O)cc1[C@@H](NC(C)=O)CC2 [Colchicine]								B Score (murine TRPM7): −7.343; Verification Ratio (murine TRPM7): 0.6723; found to inhibit TRPM7-mediated cell injury (murine TRPM7): inhibit TRPM7-mediated cell injury
COC(=O)C1=C(C)NC(C)=C(C(=O)OCCN(C)Cc2ccccc2)C1c1cccc([N+](=O)[O-])c1 (centres unmarked) [Nicardipine hydrochloride]	inhibit TRPM7-mediated cell injury				−7.543	0.6651	Yes	
COc1cc(/C=C/C(=O)N2CCC=CC2=O)cc(OC)c1OC [Piperlongumine]	inhibit TRPM7-mediated cell injury				−9.599	0.7354	Yes	
O=C(O)c1cc(O)cc(C(=O)O)n1 [Chelidamic acid]	inhibit TRPM7-mediated cell injury	Yes	−12.502	1.287				
COc1ccc(C[C@H]2NC[C@H](O)[C@H]2OC(C)=O)cc1 [Anisomycin]	inhibit TRPM7-mediated cell injury				−6.683	0.4265	Yes	
C[C@@]12C(=O)OC(=O)[C@]1(C)[C@H]1CC[C@@H]2O1 [Cantharidin]	inhibit TRPM7-mediated cell injury		−10.178	0.7724	−9.671	0.3746		
CCOc1ccc(Cc2nccc3cc(OCC)c(OCC)cc23)cc1OCC [Ethaverine hydrochloride]	inhibit TRPM7-mediated cell injury				−9.238	0.08142	Yes	
COc1cccc(OC)c1OCCNCC1CSc2ccccc2O1 (centres unmarked) [Benoxathian hydrochloride]	inhibit TRPM7-mediated cell injury	Yes	−10.32	0.359				
COc1cc2c(cc1OC)-c1c/c(=N\c3c(C)cc(C)cc3C)n(C)c(=O)n1CC2 [Trequinsin hydrochloride]	inhibit TRPM7-mediated cell injury	Yes	−8.81	0.2534				
